The text below walks through data of patent US20250099448A1, “HETEROCYCLIC COMPOUNDS” (Hoffmann-La Roche Inc., priority 2022, published 2025).

What is called IC50 is the concentration needed to halve the response being measured. The low end stands for greater potency, the high end for weaker potency.

The assay has as its target T1, MAGL protein (Homo sapiens, UniProt Q99685).
T1 sequence (Q99685 1-303): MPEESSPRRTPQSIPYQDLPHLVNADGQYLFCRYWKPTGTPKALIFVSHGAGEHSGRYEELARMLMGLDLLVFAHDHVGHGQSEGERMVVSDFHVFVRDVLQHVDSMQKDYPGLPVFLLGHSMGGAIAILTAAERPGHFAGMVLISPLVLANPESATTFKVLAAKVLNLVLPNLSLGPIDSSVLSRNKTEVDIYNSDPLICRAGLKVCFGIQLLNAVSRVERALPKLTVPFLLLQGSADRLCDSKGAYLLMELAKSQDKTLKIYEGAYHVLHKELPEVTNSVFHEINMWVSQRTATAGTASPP
Kind of assay: 2-AG assay: MAGL inhibitory activity by hydrolysis of 2-arachidonoylglycerol to arachidonic acid, followed by mass spectrometry. The class given is biochemical. The settings on record: 8 μM 2-arachidonoylglycerol, 15 min preincubation, 30 min reaction at RT, RapidFire MS readout. The gist of the method: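 MAGL was preincubated 15 min at RT with compound (12.5 to […], 3-fold steps) in 50 mM TRIS, 1 mM EDTA, 0.01% Tween-20, 2.5% DMSO. The reaction ran 30 min at RT with 8 μM 2-AG. Arachidonic acid was quantified by RapidFire SPE-MS/MS against a d8-arachidonic acid internal standard.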
With `Cc1csc(CN2CC3(C2)CN(C(=O)N2CC4(CC(c5nnc(C6CC6)[nH]5)C4)C2)C3)n1` [Example 895, [6-(5-cyclopropyl-4H-1,2,4-triazol-3-yl)-2-azaspiro[3.3]heptan-2-yl]-[6-[(4-methylthiazol-2-yl)methyl]-2,6-diazaspiro[3.3]heptan-2-yl]methanone], the midpoint of inhibition, the IC50, lay at 23.5 nM.

`NC(=O)c1cc(Cl)cnc1OCC1CCN(C(=O)N2CC3(CC(c4nc(C5CC5)n[nH]4)C3)C2)CC1` [Example 899] came in with an IC50 of 100 nM.

The molecule `Cn1ccc(CN2CC3(C2)CN(C(=O)N2CC4(CC(c5nc(C6CC6)n[nH]5)C4)C2)C3)n1` [Example 902, [6-(3-cyclopropyl-1H-1,2,4-triazol-5-yl)-2-azaspiro[3.3]heptan-2-yl]-[6-[(1-methylpyrazol-3-yl)methyl]-2,6-diazaspiro[3.3]heptan-2-yl]methanone] gave an IC50 of 3110 nM.

Consider `O=C(N1CCC(COc2ccc(C(F)(F)F)nc2)CC1)N1CC2(CC(c3nnc(C4CC4)[nH]3)C2)C1` [Example 903], for which 125 nM corresponded to half-maximal inhibition (IC50).

With `COc1cc(COC2CCN(C(=O)N3CC4(CC(c5nc(C6CC6)n[nH]5)C4)C3)CC2)ccc1C#N` [Example 904], it took 159 nM to reach half-maximal inhibition (IC50).

On to `O=C(N1CCC(OCc2ccc(C(F)(F)F)cc2F)CC1)N1CC2(CC(c3nc(C4CC4)n[nH]3)C2)C1` [Example 906, [6-(3-cyclopropyl-1H-1,2,4-triazol-5-yl)-2-azaspiro[3.3]heptan-2-yl]-[4-[2-fluoro-4-(trifluoromethyl)benzyl]oxypiperidino]methanone], for which the half-maximal inhibitory concentration (IC50) turned out to be 5.61 nM.

In the case of `CS(=O)(=O)c1cc(C(F)(F)F)ccc1COC1CCN(C(=O)N2CC3(CC(c4nc(C5CC5)n[nH]4)C3)C2)CC1` [Example 907, [6-(3-cyclopropyl-1H-1,2,4-triazol-5-yl)-2-azaspiro[3.3]heptan-2-yl]-[4-[2-mesyl-4-(trifluoromethyl)benzyl]oxypiperidino]methanone], inhibition was half-maximal at 43.1 nM (IC50).

Turning to `N#Cc1cc(Cl)cnc1OCC1CCN(C(=O)N2CC3(CC(c4nc(C5CC5)n[nH]4)C3)C2)CC1` [Example 908], the IC50 came out at 56.6 nM.

Consider `N#Cc1[nH]nnc1-c1ccc(C2CN(C(=O)N3CC4(CC(c5nnc(C6CC6)[nH]5)C4)C3)C2)cc1` [Example 910, 4-[4-[1-[6-(5-cyclopropyl-4H-1,2,4-triazol-3-yl)-2-azaspiro[3.3]heptane-2-carbonyl]azetidin-3-yl]phenyl]-1H-triazole-5-carbonitrile], for which inhibition was half-maximal at 4.23 nM (IC50).

Regarding `CS(=O)(=O)c1cc(C(F)(F)F)ccc1OCC1CCN(C(=O)N2CC3(CC(c4nc(C5CC5)n[nH]4)C3)C2)CC1` [Example 915, [6-(3-cyclopropyl-1H-1,2,4-triazol-5-yl)-2-azaspiro[3.3]heptan-2-yl]-[4-[[2-mesyl-4-(trifluoromethyl)phenoxy]methyl]piperidino]methanone], the 50% inhibitory concentration (IC50) stood at 241 nM.

For `O=C(N1CCC(COc2ccc(F)c(C(F)(F)F)c2)CC1)N1CC2(CC(c3nc(C4(O)CC4)n[nH]3)C2)C1` [Example 916, [4-[[4-fluoro-3-(trifluoromethyl)phenoxy]methyl]piperidino]-[6-[3-(1-hydroxycyclopropyl)-1H-1,2,4-triazol-5-yl]-2-azaspiro[3.3]heptan-2-yl]methanone], the half-maximal inhibitory concentration (IC50) amounted to 39.7 nM.

`CS(=O)(=O)c1cc(OC(F)(F)F)ccc1OCC1CCN(C(=O)N2CC3(CC(c4nnc(C5CC5)[nH]4)C3)C2)CC1` [Example 917, [6-(5-cyclopropyl-4H-1,2,4-triazol-3-yl)-2-azaspiro[3.3]heptan-2-yl]-[4-[[2-mesyl-4-(trifluoromethoxy)phenoxy]methyl]piperidino]methanone] yielded an IC50 of 237 nM.

Molecule `CS(=O)(=O)c1ccc(COC2CCN(C(=O)N3CC4(CC(c5nc(C6(O)CC6)n[nH]5)C4)C3)CC2)c(Cl)c1` [Example 918, [4-(2-chloro-4-mesyl-benzyl)oxypiperidino]-[6-[3-(1-hydroxycyclopropyl)-1H-1,2,4-triazol-5-yl]-2-azaspiro[3.3]heptan-2-yl]methanone] displayed an IC50 of 964 nM.

Regarding `CS(=O)(=O)c1cc(C(F)(F)F)ccc1OCC1CCN(C(=O)N2CC3(CC(c4nc(C5(O)CC5)n[nH]4)C3)C2)CC1` [Example 919, [6-[3-(1-hydroxycyclopropyl)-1H-1,2,4-triazol-5-yl]-2-azaspiro[3.3]heptan-2-yl]-[4-[[2-mesyl-4-(trifluoromethyl)phenoxy]methyl]piperidino]methanone], inhibition was half-maximal at 1200 nM (IC50).

Molecule `O=C(N1CCC(COc2cc(F)cc(C(F)(F)F)c2)CC1)N1CC2(CC(c3nc(C4(O)CC4)n[nH]3)C2)C1` [Example 921, [4-[[3-fluoro-5-(trifluoromethyl)phenoxy]methyl]piperidino]-[6-[3-(1-hydroxycyclopropyl)-1H-1,2,4-triazol-5-yl]-2-azaspiro[3.3]heptan-2-yl]methanone] returned a 50% inhibitory concentration (IC50) of 31.5 nM.

Consider `CS(=O)(=O)c1ccc(OCC2CCN(C(=O)N3CC4(CC(c5nc(C6(O)CC6)n[nH]5)C4)C3)CC2)cc1C(F)(F)F` [Example 922], for which half-maximal inhibition (IC50) required 326 nM.

With `CS(=O)(=O)c1cc(OC(F)(F)F)ccc1OCC1CCN(C(=O)N2CC3(CC(c4nc(C5(O)CC5)n[nH]4)C3)C2)CC1` [Example 923], the IC50 amounted to 731 nM.

Take `CS(=O)(=O)c1ccc(OCC2CCN(C(=O)N3CC4(CC(c5n[nH]c(C6CC6)n5)C4)C3)CC2)cc1C(F)(F)F` [Example 924, [6-(5-cyclopropyl-1H-1,2,4-triazol-3-yl)-2-azaspiro[3.3]heptan-2-yl]-[4-[[4-mesyl-3-(trifluoromethyl)phenoxy]methyl]piperidino]methanone]: half-maximal inhibition (IC50) was put at 49.2 nM.

For the molecule `CS(=O)(=O)c1ccc(COC2CCN(C(=O)N3CC4(CC(c5n[nH]c(C6CC6)n5)C4)C3)CC2)c(Cl)c1` [Example 925, [4-(2-chloro-4-mesyl-benzyl)oxypiperidino]-[6-(5-cyclopropyl-1H-1,2,4-triazol-3-yl)-2-azaspiro[3.3]heptan-2-yl]methanone], the half-inhibitory concentration (IC50) is 79.2 nM.

`NC1(c2nnc(C3CC4(C3)CN(C(=O)N3CC5(CC(Cc6ccc(C(F)(F)F)cn6)C5)C3)C4)[nH]2)CC1` [Example 948, [6-[5-(1-aminocyclopropyl)-4H-1,2,4-triazol-3-yl]-2-azaspiro[3.3]heptan-2-yl]-[6-[[5-(trifluoromethyl)-2-pyridyl]methyl]-2-azaspiro[3.3]heptan-2-yl]methanone]: the IC50 was determined as 2.35 nM.

`O=C(N1CC2(CCN(Cc3cc(C(F)(F)F)no3)CC2)C1)N1CC2(CC(c3nc(C4CC4)n[nH]3)C2)C1` [Example 955, [6-(3-cyclopropyl-1H-1,2,4-triazol-5-yl)-2-azaspiro[3.3]heptan-2-yl]-[7-[[3-(trifluoromethyl)isoxazol-5-yl]methyl]-2,7-diazaspiro[3.5]nonan-2-yl]methanone] came in with an IC50 of 23.1 nM.

`Cn1c(CN2CC3(C2)CN(C(=O)N2CC4(CC(c5nc(C6CC6)n[nH]5)C4)C2)C3)nnc1C(F)(F)F` [Example 958, [6-(3-cyclopropyl-1H-1,2,4-triazol-5-yl)-2-azaspiro[3.3]heptan-2-yl]-[6-[[4-methyl-5-(trifluoromethyl)-1,2,4-triazol-3-yl]methyl]-2,6-diazaspiro[3.3]heptan-2-yl]methanone] showed a half-inhibitory concentration (IC50) of 152 nM.

`O=C(c1cccc(F)c1)N1CCN(C(=O)N2CC3(CC(c4nnc(C5CC5)[nH]4)C3)C2)CC1` [Example 979, [4-[6-(5-cyclopropyl-4H-1,2,4-triazol-3-yl)-2-azaspiro[3.3]heptane-2-carbonyl]piperazino]-(3-fluorophenyl)methanone] displayed an IC50 of 2940 nM.

As to `COc1cc(COC2CCN(C(=O)N3CC4(CC(c5nc(C6CC6)n[nH]5)C4)C3)CC2)ccc1C(N)=O` [Example 980, 4-[[1-[6-(3-cyclopropyl-1H-1,2,4-triazol-5-yl)-2-azaspiro[3.3]heptane-2-carbonyl]-4-piperidyl]oxymethyl]-2-methoxy-benzamide], the IC50 stood at 2520 nM.

As for `N=S(=O)(c1ccc(CC2CC3(C2)CN(C(=O)N2CC4(CC(c5nc(C6CC6)n[nH]5)C4)C2)C3)cc1)C(F)(F)F` (stereo not shown) [compound 2], the IC50 worked out at 0.19 nM.

`O=C(N1CC2(CC(Cc3cnc(C(F)(F)F)cn3)C2)C1)N1CC2(CC(c3nc(C4(O)CC4)n[nH]3)C2)C1` [compound 4] came in with an IC50 of 4.89 nM.

Molecule `O=C(N1CC2(CC(Cc3ccc(C(F)(F)F)nc3)C2)C1)N1CC2(CC(c3nnc(C4CC4)[nH]3)C2)C1` [compound 5] had an IC50 of 0.16 nM.

In turn, `O=C(N1CC2(CC(Cc3ccc(C(F)(F)F)nc3)C2)C1)N1CC2(CC(c3nnc(C4(O)CC4)[nH]3)C2)C1` [compound 6] yielded an IC50 of 1.15 nM.

On to `O=C(N1CC2(CC(Cc3ccc(C(F)(F)F)nc3)C2)C1)N1CC2(CC(c3nnc(C4CCC4)[nH]3)C2)C1` [compound 7], for which the IC50 worked out at 3.65 nM.

For the molecule `O=C(N1CC2(CC(Cc3ccc(OC(F)(F)F)cn3)C2)C1)N1CC2(CC(c3nnc(C4CC4)[nH]3)C2)C1` [compound 8], the concentration for half-maximal inhibition (IC50) was determined as 0.13 nM.

`O=C(N1CC2(CC(Cc3ccc(OC(F)(F)F)cn3)C2)C1)N1CC2(CC(c3nnc(C4(O)CC4)[nH]3)C2)C1` [compound 9] returned an IC50 of 0.57 nM.

For `CS(=O)(=O)c1ccc(CC2CC3(C2)CN(C(=O)N2CC4(CC(c5nnc(C6CC6)[nH]5)C4)C2)C3)cc1` [compound 12], half-maximal inhibition (IC50) was put at 0.81 nM.

On to `CS(=O)(=O)c1ccc(CC2CC3(C2)CN(C(=O)N2CC4(CC(c5nnc(C6(O)CC6)[nH]5)C4)C2)C3)cc1` [compound 13], for which the IC50 was 4.72 nM.

Take `CS(=O)(=O)c1ccc(CC2CC3(C2)CN(C(=O)N2CC4(CC(c5nnc(C6CCC6)[nH]5)C4)C2)C3)cc1` [compound 14]: half-maximal inhibition (IC50) required 14.8 nM.
